Experimental data taken from patent US20040038855A1 (priority 1999, published 2004).
Where two headings read alike, the source gives them in different places.

Columns and labels:
[1] = biological target: T1, human Histamine H1 receptor (Homo sapiens, UniProt P35367); assay: Binding affinity at the human histamine H1 receptor; details: Table 3c; read-out: hH1 Ki
T1 construct: expressed in transfected cells
How it was run: (§1)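 Receptor binding read-out throughout; membranes expressing human D1 or D2 receptor were used for those two targets.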

[2] = biological target: T2, human Alpha-1a Adrenergic receptor (Homo sapiens, UniProt P35348); assay: Binding affinity at the human alpha-1A adrenergic receptor; details: Table 3c; read-out: hAlpha-1a Ki
T2 construct: expressed in transfected cells
T2 sequence (P35348 1-466): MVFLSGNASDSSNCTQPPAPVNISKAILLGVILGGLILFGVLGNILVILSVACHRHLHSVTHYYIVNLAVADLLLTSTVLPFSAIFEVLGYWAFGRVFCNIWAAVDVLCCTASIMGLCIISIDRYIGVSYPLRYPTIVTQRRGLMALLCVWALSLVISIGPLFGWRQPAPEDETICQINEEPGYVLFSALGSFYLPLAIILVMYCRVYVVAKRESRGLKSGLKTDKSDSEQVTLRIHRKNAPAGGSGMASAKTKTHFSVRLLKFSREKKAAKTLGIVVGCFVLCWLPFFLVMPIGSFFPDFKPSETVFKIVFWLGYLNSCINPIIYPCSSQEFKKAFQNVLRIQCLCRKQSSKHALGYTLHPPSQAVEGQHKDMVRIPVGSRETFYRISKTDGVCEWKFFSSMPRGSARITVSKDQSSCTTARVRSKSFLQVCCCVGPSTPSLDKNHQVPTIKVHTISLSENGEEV
How it was run: as §1

[3] = biological target: T3, human Dopamine D2 receptor (Homo sapiens, UniProt P14416); assay: Binding affinity at the human dopamine D2 receptor; details: Table 3c; read-out: hD2 Ki
T3 construct: purchased BioSignal, Inc. (Montreal, Canada)
How it was run: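 Radioligand-type binding on purchased cell membranes expressing human D1 or D2 receptors; D2, D1 and α2 assays follow procedures of an earlier patent, D5 binding follows a separate patent procedure.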

rat MCH1 receptor = biological target: T4, rat MCH1 receptor (Rattus norvegicus, UniProt P97639); assay: Binding affinity (Ki) at the rat MCH1 receptor
T4 construct: expressed in transfected cells

[4] = Examples 38-141, read-out: Ki (nM) rMCH1

T1 sequence (P35367 whole entry): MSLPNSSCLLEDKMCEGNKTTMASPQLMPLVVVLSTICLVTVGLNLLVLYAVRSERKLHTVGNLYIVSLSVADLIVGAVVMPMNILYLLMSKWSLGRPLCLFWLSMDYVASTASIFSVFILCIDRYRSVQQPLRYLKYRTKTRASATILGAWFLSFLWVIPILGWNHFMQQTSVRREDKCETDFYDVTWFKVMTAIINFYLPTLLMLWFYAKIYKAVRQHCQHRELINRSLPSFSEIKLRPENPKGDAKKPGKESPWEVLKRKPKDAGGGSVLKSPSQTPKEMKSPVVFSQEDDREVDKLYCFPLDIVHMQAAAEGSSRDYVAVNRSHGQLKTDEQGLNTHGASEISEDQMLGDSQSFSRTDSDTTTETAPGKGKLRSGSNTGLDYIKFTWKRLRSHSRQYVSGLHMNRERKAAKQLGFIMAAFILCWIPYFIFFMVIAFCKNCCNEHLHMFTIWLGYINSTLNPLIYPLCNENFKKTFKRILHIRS
T3 sequence (P14416 whole entry): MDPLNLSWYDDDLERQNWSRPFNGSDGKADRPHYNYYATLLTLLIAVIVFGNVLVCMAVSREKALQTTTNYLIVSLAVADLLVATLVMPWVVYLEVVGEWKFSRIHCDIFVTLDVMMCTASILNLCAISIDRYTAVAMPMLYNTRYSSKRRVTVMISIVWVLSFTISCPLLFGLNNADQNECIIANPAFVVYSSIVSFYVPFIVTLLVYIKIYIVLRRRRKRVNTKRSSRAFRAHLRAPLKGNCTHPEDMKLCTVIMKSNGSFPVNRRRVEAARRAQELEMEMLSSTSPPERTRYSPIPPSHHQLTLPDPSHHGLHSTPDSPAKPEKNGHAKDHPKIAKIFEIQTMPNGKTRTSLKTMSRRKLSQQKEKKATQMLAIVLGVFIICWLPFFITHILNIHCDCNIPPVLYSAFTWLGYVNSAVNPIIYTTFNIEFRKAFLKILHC
T4 sequence (P97639 whole entry): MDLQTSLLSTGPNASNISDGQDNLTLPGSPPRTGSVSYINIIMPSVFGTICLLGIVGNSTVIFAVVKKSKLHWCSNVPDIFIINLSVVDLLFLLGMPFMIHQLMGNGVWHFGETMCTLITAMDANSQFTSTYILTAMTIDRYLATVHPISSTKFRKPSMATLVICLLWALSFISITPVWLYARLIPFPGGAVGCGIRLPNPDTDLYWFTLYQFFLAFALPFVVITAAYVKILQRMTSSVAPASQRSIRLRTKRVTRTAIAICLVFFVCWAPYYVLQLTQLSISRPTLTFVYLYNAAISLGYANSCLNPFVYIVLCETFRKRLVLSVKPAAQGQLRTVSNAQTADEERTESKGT

Row | SMILES | Ki [1] | Ki [2] | Ki [3] | Ki (rat MCH1 receptor; [4]) | Ki (rat MCH1 receptor; Table 3c, read-out: rMCH1 Ki)
1 | CC(=O)c1ccccc1O[C@@H](CCN1CCC(c2cccc(NC(=O)C(C)C)c2)CC1)c1ccccc1 [Example 126] | 8000 nM | 1520 nM | 1050 nM | 50 nM | 50 nM
2 | CC(C)C(=O)Nc1cccc(C2CCN(CC[C@H](Oc3ccccc3F)c3ccccc3)CC2)c1 [Example 127] | 1710 nM | 226 nM | 119 nM | 6.6 nM | 6.6 nM
3 | CC(=O)Nc1cccc(C2CCN(CCCNC(=O)N3C(=O)OC[C@@H]3c3cc(F)cc(F)c3)CC2)c1 [Example 128] | 33100 nM | 645 nM | 41500 nM | 31.4 nM | 31.4 nM
4 | CC(=O)Nc1cccc(C2CCN(CCCNC(=O)N3C(=O)OC(C)(C)C3c3ccc(F)c(F)c3)CC2)c1 (centres unmarked) [Example 130] | 1860 nM | 333 nM | 39500 nM | 48.6 nM | 48.6 nM
5 | CC(=O)Nc1cccc(C2CCN(CCCNC(=O)N3C(=O)OCC3Cc3ccc(F)cc3)CC2)c1 (centres unmarked) [Example 132] | 39700 nM | 11000 nM | 41500 nM | 44.6 nM | 44.6 nM
6 | CC(C)C(=O)Nc1cccc(C2CCN(CC[C@@H](Oc3cccc([N+](=O)[O-])c3)c3ccccc3)CC2)c1 [Example 135] | 507 nM | 722 nM | 244 nM | 19.4 nM | 19.4 nM
7 | CCOc1ccccc1O[C@@H](CCN1CCC(c2cccc(NC(=O)C(C)C)c2)CC1)c1ccccc1 [Example 136] | 9790 nM | 620 nM | 833 nM | 14.3 nM | 14.3 nM
8 | CC(=O)c1cccc(O[C@@H](CCN2CCC(c3cccc(NC(=O)C(C)C)c3)CC2)c2ccccc2)c1 [Example 141] | 3820 nM | 3020 nM | 2450 nM | 3.2 nM | 3.2 nM

The remaining lines, values ahead:

Row | Ki [1] | Ki [2] | Ki [3] | Ki (rat MCH1 receptor; [4]) | Ki (rat MCH1 receptor; Table 3c, read-out: rMCH1 Ki) | SMILES
9 | 329 nM | 204 nM | 66 nM | 9.3 nM | 9.3 nM | CC(C)C(=O)Nc1cccc(C2CCN(CC[C@@H](Oc3cccc(Cl)c3)c3ccccc3)CC2)c1 [Example 124]
10 | > 50000 nM | 232 nM | 46.6 nM | 32.5 nM | 32.5 nM | CC(C)C(=O)Nc1cccc(C2CCN(CC[C@H](OC(=O)c3cccc4ccccc34)c3ccccc3)CC2)c1 [Example 125]
11 | 6520 nM | 381 nM | 41500 nM | 22.3 nM | 22.3 nM | CC(=O)Nc1cccc(C2CCN(CCCNC(=O)N3C(=O)OC[C@@H]3c3cc(F)c(F)c(F)c3)CC2)c1 [Example 129]
12 | 2840 nM | 2470 nM | 19000 nM | 11.8 nM | 11.8 nM | CC(=O)Nc1cccc(C2CCN(CCCNC(=O)N3C(=O)O[C@H](C)C3c3ccc(F)c(F)c3)CC2)c1 (some centres unmarked) [Example 131]
13 | 4180 nM | 167 nM | 447 nM | 25.7 nM | 25.7 nM | CC(C)C(=O)Nc1cccc(C2CCN(CC[C@@H](Oc3ccccc3[N+](=O)[O-])c3ccccc3)CC2)c1 [Example 133]
